Experimental data taken from article PMC3884022 (Journal of Hematology & Oncology, 2014).
Where two headings read alike, the source gives them in different places.

Experiments:
[1] = tested on: non-small cell lung (NSCLC) cell lines and breast cancer cell lines; conditions: with erlotinib and lapatinib; including RAS mutant lines; cited from earlier work
[2] = tested on: AKT2; parameters: method as in earlier work; conditions: cited from earlier work
[3] = target: 2D6 (Homo sapiens, UniProt P10635); assay: CYP2D6 inhibition; assay type: in vitro ADME
2D6, sequence (P10635 whole entry): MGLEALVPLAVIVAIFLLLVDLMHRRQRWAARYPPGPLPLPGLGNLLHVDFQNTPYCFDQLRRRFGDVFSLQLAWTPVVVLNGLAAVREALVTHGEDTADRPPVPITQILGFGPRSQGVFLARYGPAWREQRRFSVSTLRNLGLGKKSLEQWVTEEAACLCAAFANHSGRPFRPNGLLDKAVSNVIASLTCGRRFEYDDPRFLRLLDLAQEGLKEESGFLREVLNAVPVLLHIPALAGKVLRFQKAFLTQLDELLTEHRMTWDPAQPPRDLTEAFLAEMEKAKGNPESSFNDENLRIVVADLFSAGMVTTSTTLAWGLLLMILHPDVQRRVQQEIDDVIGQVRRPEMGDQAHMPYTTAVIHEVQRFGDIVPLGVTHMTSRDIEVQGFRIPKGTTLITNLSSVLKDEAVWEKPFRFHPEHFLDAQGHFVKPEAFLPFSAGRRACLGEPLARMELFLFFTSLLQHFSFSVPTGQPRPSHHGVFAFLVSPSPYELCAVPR

[4] = tested on: AKT1; parameters: method as in earlier work; conditions: cited from earlier work
[5] = tested on: patients with advanced solid tumors; conditions: cited from earlier work
[6] = tested on: AKT3; parameters: method as in earlier work; conditions: cited from earlier work
[7] = tested on: patients with advanced solid tumors
Protocol: The dose-escalation phase in all schedules followed a toxicity probability interval approach, where the aim was to target a dose with a DLT rate of 30% [20].
For all treatment schedules, safety assessments were conducted at baseline and on days 1, 2, 3, 7, 15, and 21 of cycle 1, and weekly in cycles 2 to 6. From cycle 7 onwards, safety assessments were performed on day 1 of each cycle. […] In addition to glucose monitoring, serum c-peptide and whole blood HbA1c were measured at baseline and monthly. Adverse events (AEs) and laboratory variables were assessed using the National Cancer Institute Common Terminology Criteria for Adverse Events (NCI-CTCAE) version 3.0 ^1.

[8] = tested on: mouse NCI-H292 tumor xenografts; conditions: 3 times per week and QW schedule of MK-2206; cited from earlier work
[9] = Phase 1 combination study: MK-2206 pharmacokinetics; assay type: in vivo, human; conditions: for Tmax / half-life: first dose; for Tmax: read-out: T max, median (range); for half-life: read-out: t 1/2, harmonic mean ± pseudo SD (converted)
Protocol: For the Q3W schedule, samples were taken in cycle 1 on days 1 to 3 as per the QOD schedule, then on days 5, 7, 15, and in cycle 2 on day 1. Blood samples were collected predose and just before the end of the infusion for carboplatin, paclitaxel, and docetaxel for archival and possible PK analysis. Another sample was taken 30 minutes into the infusion of paclitaxel. These samples were archived for possible future analysis to investigate if any unexpected toxicities may have been as a result of a PK interaction. Docetaxel PK samples were analyzed in view of the DLT of febrile neutropenia observed in arm 2; however, PK parameters, such as half-life (t1/2) or systemic exposure of paclitaxel, docetaxel, carboplatin, and erlotinib, could not be evaluated due to the sparse blood sampling design used in this study.
For QW dosing, samples were taken in cycle 1 on day 1 (predose, 2, 4, 6, 10, and 24 hours postdose), day 3 (48 hours postdose), and day 5 (96 hours postdose), then on days 8 and 15 (predose). This sampling schedule was repeated in cycle 2, except for the day 15 predose sample, which was omitted. For the QOD schedule, PK sampling for erlotinib was performed in cycle 1 on day 1 (predose, 2 and 4 hours postdose) and day 21 (2 and 4 hours postdose); for the QW schedule, sampling was performed in cycle 1 on day 1 (predose, 2 and 4 hours postdose) and in cycle 2 on day 1 (2 and 4 hours postdose). […] Blood samples were not analyzed for erlotinib concentrations as the potential for a marked drug-drug interaction with erlotinib as a victim was considered to be low as erlotinib is metabolized by both CYP3A and CYP1A.

[10] = tested on: PC-3 prostate and NCI-H462 tumor xenografts; conditions: with docetaxel, carboplatin, and gemcitabine; cited from earlier work
[11] = tested on: NCI-H292 and A2780 tumor cells; conditions: with carboplatin and docetaxel; cited from earlier work
[12] = human, plasma, oral, arm 1 carboplatin AUC 6 + paclitaxel 200 mg/m^2, MK-2206 90 mg Q3W, 5 patients
[13] = human, plasma, oral, arm 1 carboplatin AUC 6 + paclitaxel 200 mg/m^2, MK-2206 200 mg Q3W, 5 patients
[14] = human, plasma, oral, arm 2 docetaxel 60 mg/m^2, MK-2206 90 mg Q3W, 3 patients
[15] = human, plasma, oral, arm 2 docetaxel 60 mg/m^2, MK-2206 200 mg Q3W, 4 patients
[16] = human, plasma, oral, arm 3 erlotinib 100 mg, MK-2206 135 mg QW, 6 patients
[17] = human, plasma, oral, arm 3 erlotinib 150 mg QD, MK-2206 135 mg QW, 6 patients

Structure (SMILES): NC1(c2ccc(-c3nc4ccn5c(=O)[nH]nc5c4cc3-c3ccccc3)cc2)CCC1 [MK-2206]
- IC50 [2]: 12 nM
- IC50 [3]: > 35000 nM
- MTD of single-agent MK-2206 ([5]; QOD): 60 mg
- MTD of MK-2206 monotherapy ([5]; QW, monotherapy phase 1 study): 200 mg
- half-life (t1/2) ([5]; single agent, QOD schedule): 60 to 80 h
- dose-limiting toxicities (DLT) ([5]; single agent): rash and stomatitis
- IC50 [6]: 65 nM
- vomiting, frequency of AE ([7]; all arms and schedules (N = 72)): 36%
- rash, frequency ([7]; arm 1, Q3W schedule): 25%
- MTD of MK-2206 ([7]; arm 1, Q3W, with carboplatin AUC 6 and paclitaxel 200 mg/m^2): 135 mg
- MTD of MK-2206 ([7]; arm 1, QOD days 1, 3, 5, 7, PO, with carboplatin AUC 6 and paclitaxel 200 mg/m^2): 45 mg
- MTD of MK-2206 ([7]; arm 2, Q3W, with docetaxel): not reached
- MAD of MK-2206 ([7]; arm 2, Q3W, with docetaxel 60 mg/m^2): 200 mg
- DLT rate ([7]; arm 3, MK-2206 135 mg QW with erlotinib): 17%
- MTD of MK-2206 ([7]; arm 3, QW, with erlotinib): not reached
- Alopecia Grade 4 ([7]; human, in vivo): 0 n (%)
- Decreased appetite Grade 4 ([7]; human, in vivo): 0 n (%)
- Diarrhea Grade 4 ([7]; human, in vivo): 0 n (%)
- Fatigue Grade 4 ([7]; human, in vivo): 0 n (%)
- Nausea Grade 4 ([7]; human, in vivo): 0 n (%)
- Pruritus Grade 4 ([7]; human, in vivo): 0 n (%)
- Rash Grade 4 ([7]; human, in vivo): 0 n (%)
- Stomatitis Grade 4 ([7]; human, in vivo): 0 n (%)
- Vomiting Grade 4 ([7]; human, in vivo): 0 n (%)
- alopecia, frequency of AE ([7]; human, in vivo): 40%
- anorexia, frequency of AE ([7]; human, in vivo): 44%
- diarrhea, frequency of AE ([7]; human, in vivo): 44%
- fatigue, frequency of AE ([7]; human, in vivo): 68%
- hyperglycemia, frequency of AE ([7]; human, in vivo): 25%
- nausea, frequency of AE ([7]; human, in vivo): 49%
- rash, frequency ([7]; human, in vivo): 40%
- rash, frequency of AE ([7]; human, in vivo): 47%
- rate of febrile neutropenia ([7]; human, in vivo): 60%
- stomatitis, frequency of AE ([7]; human, in vivo): 32%
- time to full reversal of rash after dose interruption and appropriate treatment ([7]; human, in vivo): 7 to 14 days
- Dose-limiting toxicities ([7]; human, in vivo, 21 days): 0
- tumor growth suppression in combination with erlotinib [8]: significantly greater in vivo tumor growth suppression and tumor regressions over each single agent
- mean Ctrough ([9]; 45-mg dose level in all schedules): > 56.8 nM
- mean 48-hr plasma concentration ([9]; 60-mg QOD (arm 1), last PK sampling time): above 56.8 nM
- AUC, Cmax and Tmax following the first MK-2206 dose ([9]; all treatment arms, compared with single-agent phase 1 study (ref 18)): within ranges observed at the corresponding dose levels in the single-agent phase 1 study
- apparent t1/2 in combination with carboplatin and erlotinib ([9]; compared with monotherapy): consistent with that observed with monotherapy
- Tmax ([9]; human, plasma, oral, arm 1 carboplatin AUC 6 + paclitaxel 200 mg/m^2, MK-2206 45 mg QOD, 6 patients): 4 h
- Tmax ([9]; human, plasma, oral, arm 1 carboplatin AUC 6 + paclitaxel 200 mg/m^2, MK-2206 60 mg QOD, 8 patients): 8 h
- Tmax [9, 12]: 6 h
- half-life [9, 12]: 79.5 ± 17.3 h
- half-life ([9]; human, plasma, oral, arm 1 carboplatin AUC 6 + paclitaxel 200 mg/m^2, MK-2206 135 mg Q3W, 6 patients): 73 ± 20 h
- Tmax [9, 13]: 4 h
- half-life [9, 13]: 74.7 ± 13.4 h
- Tmax [9, 14]: 4 h
- half-life [9, 14]: 105 ± 15 h
- half-life ([9]; human, plasma, oral, arm 2 docetaxel 60 mg/m^2, MK-2206 135 mg Q3W, 3 patients): 106 ± 32.7 h
- Tmax [9, 15]: 6 h
- half-life [9, 15]: 86.9 ± 11.5 h
- Tmax ([9]; human, plasma, oral, arm 2 docetaxel 75 mg/m^2, MK-2206 45 mg QOD, 5 patients): 6 h
- Tmax ([9]; human, plasma, oral, arm 3 erlotinib 100 mg, MK-2206 45 mg QOD, 9 patients): 6 h
- Tmax [9, 16]: 6 h
- half-life [9, 16]: 60.6 ± 6.6 h
- Tmax ([9]; human, plasma, oral, arm 3 erlotinib 150 mg QD, MK-2206 45 mg QOD, 4 patients): 7 h
- Tmax [9, 17]: 4 h
- half-life [9, 17]: 50.2 ± 10.3 h
- concentration at 48 h ([9]; human, plasma, oral, 45-mg QOD (arm 3), last PK sampling time): > 56.8 nM
- inhibition of xenograft growth in combination [10]: synergised
- inhibition of tumor cell growth in combination [11]: synergy
